Data as given in patent US20260337153A1, “IONIZABLE AMINE LIPIDS” (Intellia Therapeutics, Inc., priority 2023, published 2026).

System: rat TTR gene
Assay: In vivo editing of TTR in rat liver after LNP delivery (NGS, % editing)
Set-up: species or system rat (Sprague-Dawley)
Conditions: for Mean % editing in rat liver: NGS, dose 0.03 mpk, LNP with G000534 sgRNA and Cas9 mRNA 1:2 w/w, 3% C13 Ether (Compound 53: 3% PEG2K-DMG), N=5 (Compound 33: N=4)
Experimental: LNPs were prepared using various amine lipids in a 4-component lipid system consisting of an ionizable lipid (e.g., an amine lipid), DSPC, cholesterol and a PEG lipid (e.g., PEG2K-DMG, C13 Ether, C14 Ether). In assays for percent liver editing in rats, Cas9 mRNA and chemically modified sgRNA targeting a rat sequence were formulated in LNPs, at either a 1:1 w/w ratio or a 1:2 w/w sgRNA:Cas9 mRNA ratio.
The lipid components were dissolved in 100% ethanol with the lipid component molar ratios described below. The chemically modified sgRNA and Cas9 mRNA were combined and dissolved in 25 mM citrate, 100 mM NaCl, pH 5.0, resulting in a concentration of total RNA cargo of approximately 0.45 mg/mL. The LNPs were formulated with an N:P ratio of about 6, with the ratio of chemically modified sgRNA:Cas9 mRNA at either a 1:1 or 1:2 w/w ratio as described below.
The LNPs were formed by an impinging jet mixing of the lipid in ethanol with two volumes of RNA solution and one volume of water. First, the lipid in ethanol is mixed through a mixing cross with the two volumes of RNA solution. Then, a fourth stream of water is mixed with the outlet stream of the cross through an inline tee. (See, e.g., WO2016010840, FIG. 2). The LNPs were held for 1 hour at room temperature, and further diluted with water (approximately 1:1 v/v). Diluted LNPs were buffer exchanged into 50 mM Tris, 45 mM NaCl, 5% (w/v) sucrose, pH 7.5 (TSS) and concentrated as needed by methods known in the art. The resulting mixture was then filtered using a 0.2 μm sterile filter. The final LNP was stored at 4° C. or −80° C. until further use.
Sprague-Dawley female rats, ranging from 6-10 weeks of age were used in each study. Animals were weighed and dosed based on individual body weight measured the morning of dosing. LNPs were dosed via the lateral tail vein in a volume of 2 mL per kilogram of animal body weight. The animals were periodically observed for adverse effects for at least 24 hours post dose.
For studies measuring in vivo editing in liver, Sprague-Dawley female rats were dosed at 0.1 mpk or 0.03 mpk, unless otherwise noted. Animals were euthanized at 6 or 7 days by carbon dioxide asphyxiation and a heart clip or by ex sanguination via cardiac puncture under isoflourane anesthesia. Blood was collected into serum separator tubes. Liver tissue was collected. Genomic DNA was isolated from the liver tissue for editing measurement by Next-Generation Sequencing (NGS).
In brief, to quantitatively determine the efficiency of editing at the target location in the genome, genomic DNA was isolated and deep sequencing was utilized to identify the presence of insertions and deletions introduced by gene editing.
PCR primers were designed around the target site (e.g., TTR), and the genomic area of interest was amplified. Additional PCR was performed according to the manufacturer's protocols (Illumina) to add the necessary chemistry for sequencing. The amplicons were sequenced on an Illumina MiSeq instrument. The reads were aligned to the […] after eliminating those having low quality scores. The resulting files containing the reads were mapped to the reference genome (BAM files), where reads that overlapped the target region of interest were selected and the number of wild type reads versus the number of reads which contain an insertion, substitution, or deletion was calculated.
The editing percentage (e.g., the “indel efficiency” or “percent indels” or “% editing” or “% indel”) can be defined as the total number of sequence reads with insertions or deletions over the total number of sequence reads, including wild type.
In vivo editing efficiency for materials delivered with formulations including various amine lipid (or ionizable lipid) compounds in Experiments 1 through 14 as described in Tables 3 and 4 was assessed. Editing was measured using G000534 (SEQ ID NO: 5) which targets the rat TTR gene. […]

[1] = Experiment 3, 0.1 mpk, LNP with PEG2K-DMG
[2] = Experiment 4, 0.1 mpk, LNP with PEG2K-DMG
[3] = Experiment 9, 0.1 mpk, LNP with PEG2K-DMG
[4] = Experiment 1, 0.1 mpk, LNP with PEG2K-DMG
[5] = Experiment 13, 0.03 mpk, LNP with PEG2K-DMG
[6] = Table 6, 0.03 mpk, PEG lipid C13 Ether
[7] = Table 6, 0.03 mpk, PEG lipid C14 Ether
[8] = Table 6, 0.03 mpk, PEG lipid PEG2K-DMG
[9] = Experiment 12, 0.04 mpk, LNP with PEG2K-DMG
[10] = Experiment 2, 0.1 mpk, LNP with PEG2K-DMG

In the case of `CCCCC/C=C\C/C=C\CCCCCCCC(=O)OCC(CCCCCCCCC(=O)OC(CCCCCCCC)CCCCCCCC)COC(=O)OCCCN(CC)CC` (stereo not drawn) [Compound 9, 2-((((3-(diethylamino)propoxy)carbonyl)oxy)methyl)-11-(heptadecan-9-yloxy)-11-oxoundecyl (9Z,12Z)-octadeca-9,12-dienoate], the Mean % editing [1] is reported as 5.3%, the Mean % editing [2] is reported as 9.6% and the Mean % editing [3] is reported as 4.3%.
In the case of `CCCCC/C=C\C/C=C\CCCCCCCC(=O)OCC(COC(=O)CCC(OCCCCCCCC)OCCCCCCCC)COC(=O)NCCN(CC)CC` (stereo not drawn) [Compound 54], the Mean % editing [4] is reported as 36.9%.
With `CCCCCCCCC(CCCCCCCC)OC(=O)CCCCCCC(=O)OCC(CC)(COC(=O)CCCCCCC(=O)OC(CCCCCCCC)CCCCCCCC)COC(=O)NCCN(CC)CC` [Compound 66, O′1,O1-(2-((((2-(diethylamino)ethyl)carbamoyl)oxy)methyl)-2-ethylpropane-1,3-diyl) 8,8′-di(heptadecan-9-yl) di(octanedioate)] the “Mean % editing in rat liver” value was 9.5%.
For `CCCCCCCCC(CCCCCCCC)OC(=O)CCCCCC(=O)OCC(CCCCCCCCC(=O)OCC(CCCC)CCCCCC)COC(=O)NCCN(CC)CC` (stereo not drawn) [Compound 51, 1-(11-((2-butyloctyl)oxy)-2-((((2-(diethylamino)ethyl)carbamoyl)oxy)methyl)-11-oxoundecyl) 7-(heptadecan-9-yl) heptanedioate], the Mean % editing (Experiment 11, 0.1 mpk, LNP with PEG2K-DMG) was 60.0%.
For `CCCCCCCCC(CCCCCCCC)OC(=O)CCCCCC(=O)OCC(COC(=O)CCCCCC(=O)OC(CCCCCCCC)CCCCCCCC)COC(=O)OCCCN1CCCC1` [Compound 64, 7,7′-di(heptadecan-9-yl) O′1,O1-(2-((((3-(pyrrolidin-1-yl)propoxy)carbonyl)oxy)methyl)propane-1,3-diyl) di(heptanedioate)], the “Mean % editing in rat liver” value was 2.0%.
Work on `CCCCCCCCC(CCCCCCCC)OC(=O)CCCCCCC(=O)OCC(COC(=O)CCCCCCC(=O)OC(CCCCCCCC)CCCCCCCC)COC(=O)OCCCN(CC)CC` [Compound 60] yielded a Mean % editing [5] of 8.1%, a Mean % editing [6] of 10.1% and a Mean % editing [7] of 6.4%. The Mean % editing [8] was 12.0%.
For `CCCCC/C=C\C/C=C\CCCCCCCC(=O)OCC(CCCCCCC(=O)OC(CCCCCC)CCCCCC)COC(=O)OCCCN(CC)CC` (stereo not drawn) [Compound 18, 2-((((3-(diethylamino)propoxy)carbonyl)oxy)methyl)-9-oxo-9-(tridecan-7-yloxy)nonyl (9Z,12Z)-octadeca-9,12-dienoate], the Mean % editing [3] was 34.4%.
`CCCCCCCCC(CCCCCCCC)OC(=O)CCCC(=O)OCC(COC(=O)CCCC(=O)OC(CCCCCCCC)CCCCCCCC)COC(=O)NCCN(CC)CC` [Compound 6, O,O′-(2-((((2-(diethylamino)ethyl)carbamoyl)oxy)methyl)propane-1,3-diyl) di(heptadecan-9-yl) diglutarate] showed a Mean % editing [9] of 36.3%, a Mean % editing [5] of 25.0% and a Mean % editing (Experiment 14, 0.03 mpk, LNP with C13 Ether) of 22.4%. The “Mean % editing in rat liver” value was 30.4%, the Mean % editing [6] was 27.4% and the Mean % editing [7] was 18.9%. For the same compound, the Mean % editing [8] was 26.8% and the Mean % editing (Table 8, 0.03 mpk, LNP with C13 Ether) was 41.7%.
`CCCCCCC(CCCC)COC(=O)CCCCCC(=O)OCC(COC(=O)CCCCCC(=O)OCC(CCCC)CCCCCC)COC(=O)OCCCN(CC)CC` (stereo not drawn) [Compound 5, 7,7′-bis(2-butyloctyl) O′1,O1-(2-((((3-(diethylamino)propoxy)carbonyl)oxy)methyl)propane-1,3-diyl) di(heptanedioate)] showed a Mean % editing [10] of 52.0%.
`CCCCC/C=C\C/C=C\CCCCCCCC(=O)OCC(CCCCCCCCC(=O)OC(CCCCCCCC)CCCCCCCCC)COC(=O)CCC(CCCC)OC(=O)NCCN1CCCC1` (stereo not drawn) [Compound 27, 11-(octadecan-9-yloxy)-11-oxo-2-(((4-(((2-(pyrrolidin-1-yl)ethyl)carbamoyl)oxy)octanoyl)oxy)methyl)undecyl (9Z,12Z)-octadeca-9,12-dienoate] was tested, and the Mean % editing (Experiment 5, 0.1 mpk, LNP with PEG2K-DMG) was 55.3%.
In the case of `CCCCCCCCC(CCCCCCCC)OC(=O)CCCCCC(=O)OCC(COC(=O)CCCCCC(=O)OC(CCCCCCCC)CCCCCCCC)COC(=O)OCCCN(CC)CC` [Compound 3, O′1,O1-(2-((((3-(diethylamino)propoxy)carbonyl)oxy)methyl)propane-1,3-diyl) 7,7′-di(heptadecan-9-yl) di(heptanedioate)], the Mean % editing [10] is reported as 53.0%.
`CCCCC/C=C\C/C=C\CCCCCCCC(=O)OCC(COC(=O)CCCCCC(=O)OC(CCCCCCCC)CCCCCCCC)COC(=O)NCCN(CC)CC` (stereo not drawn) [Compound 59] showed a Mean % editing [4] of 36.7% and a Mean % editing [10] of 53.4%.
Compound `CCCCCCCCOC(CCC(=O)OCC(COC(=O)CCC(OCCCCCCCC)OCCCCCCCC)COC(=O)OCCCN(CC)CC)OCCCCCCCC` [Compound 1, 2-((((3-(diethylamino)propoxy)carbonyl)oxy)methyl)propane-1,3-diyl bis(4,4-bis(octyloxy)butanoate)] has a Mean % editing [1] of 52.4%.
Compound `CCCCC/C=C\C/C=C\CCCCCCCC(=O)OCC(COC(=O)CCCCCC(=O)OCC(CCCC)CCCCCC)COC(=O)OCCCN(CC)CC` (stereo not drawn) [Compound 4, 1-(2-butyloctyl) 7-(3-(((3-(diethylamino)propoxy)carbonyl)oxy)-2-((((9Z,12Z)-octadeca-9,12-dienoyl)oxy)methyl)propyl) heptanedioate] has a Mean % editing [10] of 27.2% and a Mean % editing [1] of 29.7%.
Work on `CCCCCCCCC(CCCCCCCC)OC(=O)CCCC(=O)OCC(COC(=O)CCCC(=O)OC(CCCCCCCC)CCCCCCCC)COC(=O)NCCN1CCCC1` [Compound 29, di(heptadecan-9-yl) O,O′-(2-((((2-(pyrrolidin-1-yl)ethyl)carbamoyl)oxy)methyl)propane-1,3-diyl) diglutarate] yielded a Mean % editing [9] of 27.3%.
In the case of `CCCCC/C=C\C/C=C\CCCCCCCC(=O)OCC(CCCCC(=O)OC(CCCC)CCCC)COC(=O)NCCN(CC)CC` (stereo not drawn) [Compound 12, 2-((((2-(diethylamino)ethyl)carbamoyl)oxy)methyl)-7-(nonan-5-yloxy)-7-oxoheptyl (9Z,12Z)-octadeca-9,12-dienoate], the Mean % editing [2] is reported as 11.6%.
`CCCCC/C=C\C/C=C\CCCCCCCC(=O)OCC(COC(=O)CCCC(=O)OC(CCCCCCCC)CCCCCCCC)COC(=O)N(C)CCN(CC)CC` (stereo not drawn) [Compound 49, 3-(((2-(diethylamino)ethyl)(methyl)carbamoyl)oxy)-2-((((9Z,12Z)-octadeca-9,12-dienoyl)oxy)methyl)propyl heptadecan-9-yl Glutarate] gave a Mean % editing (Experiment 10, 0.1 mpk, LNP with PEG2K-DMG) of 47.1%.
Work on `CCCCC/C=C\C/C=C\CCCCCCCC(=O)OCC(CCCCCCCCC(=O)OC(CCCCCCCC)CCCCCCCC)COC(=O)OCCCN(C)CC` (stereo not drawn) [Compound 11, 2-((((3-(ethyl(methyl)amino)propoxy)carbonyl)oxy)methyl)-11-(heptadecan-9-yloxy)-11-oxoundecyl (9Z,12Z)-octadeca-9,12-dienoate] yielded a Mean % editing [2] of 14.0%.
`CCCCC/C=C\C/C=C\CCCCCCCC(=O)OCC(CCCCC(=O)OC(CCCCCCCC)CCCCCCCC)COC(=O)OCCCN(CC)CC` (stereo not drawn) [Compound 15, 2-((((3-(diethylamino)propoxy)carbonyl)oxy)methyl)-7-(heptadecan-9-yloxy)-7-oxoheptyl (9Z,12Z)-octadeca-9,12-dienoate] showed a Mean % editing [3] of 15.1%.
